This is an account of results in US6951682B1, “Porous coatings bearing ligand arrays and use thereof” (Syntrix Biochip, Inc., priority 1998, dated 2005).

The test system of test [1] is surface-bound DNA-ligand 5′-GCCTACGC-3′. Description: Hybridization of fluorescein-labeled DNA-receptor to DNA-ligand synthesized on patterned porous coating (epifluorescence). The test is classed as binding. As to conditions: 10 μM in 6×SSPE, 1 hour at 4° C., wash at 15° C.; 10× objective, 15 seconds exposure. The procedure:
Using the DNA synthesizer to automatically deliver reagents, the DNA-ligand with the sequence 5′-[…]-3′ was synthesized via eight phosphoramidite couplings on the exposed hydroxyl groups beginning with the 3′ end. Following synthesis, the reactor system was separated from the DNA synthesizer, and the phosphate and exocyclic amine protecting groups removed by manually applying 0.05 M potassium carbonate in methanol to the reactor cavity for 2 hours at room temperature. […]
The 6×SSPE solution is a high-salt buffer with a pH of 7.4 comprising 1M NaCl, 66 mM NaH2PO4/Na2HPO4, 6 mM EDTA, and 0.05° Triton X-100-™ The slide was subsequently washed in 6×SSPE at a temperature of 15° C., and mounted on a modified microscope stage attached to a Standard Epifluorescence Microscope The stage contained an aqueous gel within its interior that was chilled to approximately 4° C. prior to image acquisition. The fluorescence image of FTA hybridized to the porous coating was captured using a 35 mm camera attached to the microscope. […]
Following hybridization, the slide was washed in 6×SSPE at a temperature of 15° C. and mounted on the modified stage as described above. The fluorescence image of the FAA hybridization was captured with the 10× objective of a Standard Epifluorescence Microscope with attached 35 mm camera. […]

In test [2] the test system is PNA-array linker-spacer-CGN1N2TCCG-NH2. The test can be described thus: Hybridization of fluorescein-labeled DNA-receptor to 16-element PNA-array on patterned porous coating (epifluorescence). The test is classed as binding. As to conditions: 10 μM in 6×SSPE, 10 minutes at room temperature; 10× objective, 15 seconds exposure. How it is done:
A patterned porous coating comprising a 4×4 array of 600 μm×600 μm porous squares was prepared as described in Example 19, and coupled with amino-linker molecules using the method described in Example 20. The PNA-array was then synthesized on the surface of the patterned porous coating with each array element occupying one 600 μm×600 μm porous square. Each element of the array comprised one of the 16 possible combinations of the sequence, linker-spacer-CGN1N2TCCG-NH2, where N1 and N2 may independently be A, G, C, or T. The position of each element in the array, as referenced by the N1N2 sequence, is shown in the array schematics of FIGS. 6A and 6B. […]
The fluorescence image of the porous coating was captured at room temperature using a 35 mm camera attached to a Standard Epifluorescence Microscope. The fluorescence image of FAA bound at the predicted array element is readily detected and visualized using an objective magnification of 10× and an exposure time of 15 seconds (see FIG. 6 and corresponding surface plot).
Bound FAA was dissociated from the PNA-array by immersing the slide in 90° C. water, and the hybridization repeated with FTA using conditions as described above for FAA. The fluorescence image of the FTA hybridization was captured with the 10× objective of a Standard Epifluorescence Microscope with attached 35 mm camera. […]

Test [3] has as its target T1, angiotensin converting enzyme (ACE) (Homo sapiens, UniProt P12821). The test can be described thus: ACE inhibitory activity, functional assay with substrate FAPGG (absorbance at 328 nm). It is filed as biochemical. As to conditions: 10 nM ACE, 50 μM FAPGG. The procedure:
Each assay mixture contained 10 nM ACE, 50 μM FAPGG, 50 mM Tris (pH 8.3), 300 mM NaCl, and 20-40 μl of each of the above analogue solutions in a total reaction volume of 50 μl. The above mixture without analogue served as the negative control for inhibitory activity. […] Each reaction was initiated by adding 5 μl of 500 μM FAPGG to 45 μl of the remaining assay components in a 100 μl cuvette. The temporal progress of each reaction was monitored by measuring the absorbance at 328 nm every 15 seconds.
The percent ACE inhibition is expressed as the percent decrease in initial velocity relative to the initial velocity of the negative control. […] Compositions are referenced by R1 and R2 groups as defined in Table XI.

The target of test [4] is T1, angiotensin converting enzyme (ACE). As to conditions: as reported by Patchett et al.; read-out: IC50 (binding affinity for ACE); cited from earlier work.

As a reminder, the IC50 is the midpoint of a concentration-inhibition curve.

T1 sequence (P12821 30-1306, species assumed): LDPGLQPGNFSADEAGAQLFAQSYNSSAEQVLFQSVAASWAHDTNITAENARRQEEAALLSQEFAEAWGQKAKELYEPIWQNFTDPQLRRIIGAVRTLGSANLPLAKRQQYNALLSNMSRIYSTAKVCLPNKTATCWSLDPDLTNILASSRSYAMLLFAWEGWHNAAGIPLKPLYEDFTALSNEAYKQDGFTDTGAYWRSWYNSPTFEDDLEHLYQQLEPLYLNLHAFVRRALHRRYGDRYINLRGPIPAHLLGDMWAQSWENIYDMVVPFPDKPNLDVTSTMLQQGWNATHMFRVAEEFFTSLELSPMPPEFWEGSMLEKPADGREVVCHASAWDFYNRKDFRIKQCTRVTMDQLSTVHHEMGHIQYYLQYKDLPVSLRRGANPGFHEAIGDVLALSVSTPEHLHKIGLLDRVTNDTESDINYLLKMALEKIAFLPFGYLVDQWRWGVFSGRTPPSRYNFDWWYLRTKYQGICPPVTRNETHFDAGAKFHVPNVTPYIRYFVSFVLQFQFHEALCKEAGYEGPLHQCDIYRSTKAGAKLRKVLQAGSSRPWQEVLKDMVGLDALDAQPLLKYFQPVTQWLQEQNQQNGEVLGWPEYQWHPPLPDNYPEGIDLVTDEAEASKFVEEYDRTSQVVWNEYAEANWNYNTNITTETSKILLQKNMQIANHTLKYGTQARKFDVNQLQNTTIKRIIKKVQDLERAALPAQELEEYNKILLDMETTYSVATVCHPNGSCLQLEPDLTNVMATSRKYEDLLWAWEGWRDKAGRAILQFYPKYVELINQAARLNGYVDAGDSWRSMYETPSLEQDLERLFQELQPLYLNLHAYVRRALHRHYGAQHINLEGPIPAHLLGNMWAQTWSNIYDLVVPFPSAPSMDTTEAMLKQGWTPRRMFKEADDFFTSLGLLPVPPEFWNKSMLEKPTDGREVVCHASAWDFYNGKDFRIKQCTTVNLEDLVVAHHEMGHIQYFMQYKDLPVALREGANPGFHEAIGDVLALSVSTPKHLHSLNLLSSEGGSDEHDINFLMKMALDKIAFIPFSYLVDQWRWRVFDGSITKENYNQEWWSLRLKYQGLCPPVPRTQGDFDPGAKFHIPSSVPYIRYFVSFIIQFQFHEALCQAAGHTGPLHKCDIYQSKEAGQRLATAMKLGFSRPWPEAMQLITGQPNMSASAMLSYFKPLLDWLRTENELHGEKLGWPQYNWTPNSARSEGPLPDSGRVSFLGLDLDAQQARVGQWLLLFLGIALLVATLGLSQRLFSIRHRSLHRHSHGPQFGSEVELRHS

5′-GCGTAGGC-fluorescein [FTA]: the “fluorescence image of hybridized DNA-receptor” value in test [1] was “readily visible”. Moreover, the “specificity of hybridization to PNA-array” value in test [2] is “hybridizes specifically to its complementary PNA sequence with little or no signal from other array elements”.
Consider 5′-GCGAAGGC-fluorescein [FAA], for which, in test [1], the “fluorescence image of hybridized DNA-receptor” value is “equivalent to the images with no receptor”. Also, in test [2], the “specificity of hybridization to PNA-array” value was “hybridizes specifically to its complementary PNA sequence with little or no signal from other array elements”.
Turning to `NCCCC[C@H](N[C@@H](CCc1ccccc1)C(=O)O)C(=O)N1CCC[C@H]1C(=O)O` [lisinopril], the initial velocity entry in test [3] (positive control, 250 nM lisinopril) was “zero”.
Regarding `CC(NC(Cc1ccccc1)C(=O)O)C(=O)N1CCCC1C(=O)O` (stereo not shown) [R1a+R2a], the “percent ACE inhibition (percent decrease in initial velocity relative to the negative control)” value in test [3] (analogue cleaved from one array element of a 1 μm thick porous coat, pH 8.3) amounted to 35%. Moreover, the 50% inhibitory concentration (IC50) in test [4] is 39 nM.
